# Columns and labels:
# [1] = Release of Nε-2,4-dinitrophenyl-L-lysine from DNP-Lys carbamates (β-elimination), HPLC; format: physicochemical; conditions: after 5 days at 37° C. and pH 7.4
# Description: A series of linker scaffolds having a range of functional groups as potential pKa modulators (substituted aromatics, ketones, nitriles, sulfones) were designed, prepared and linked via carbamate bonds to Ne-2,4-dinitrophenyl-L-lysine (Ne-DNP-Lys) for evaluation of release rates. DNP-Lys was chosen as the released moiety as is water soluble and is a strong chromophore to permit HPLC-UV analysis.
# The rates of release of Nε-2,4-dinitrophenyl-L-lysine from these compounds were determined at pH 7.4 or pH 8.3, 37° C., by HPLC analysis. Kinetic analyses of the release reactions were performed by HPLC (C18; linear MeOH/water+0.5% HOAc gradient) using a UV/vis monitor at 350 nm. The areas under the Lys(DNP) (“P”) and starting material (“S”) peaks were integrated to determine extent of reaction (“R”) as R=P/(S+P). Reaction rates were calculated from the slope the line obtained by linear regression analysis of a plot of ln(1-R) versus time.
# [2] = Hydrolysis of carbamate in 50% human serum; format: in vitro ADME; conditions: after 1 week at 37° C.
# Description: In general, compared to C—H, a) electron withdrawing groups at R^1 increase the rate; b) alkyl groups at R^5 increase the rate; and c) aryl moieties at R^5 decrease the rate.
smiles,measurement,setting,value
"O=C(N[C@@H](CCCCNc1ccc([N+](=O)[O-])cc1[N+](=O)[O-])C(=O)O)OCc1ccccc1 [O-benzyl-N—(Nε-2,4-dinitrophenyl-L-lysine)-carbamate]",cleavage (estimated detection limit),[1],< 0.25%
same,"release of Nε-2,4-dinitrophenyl-L-lysine",[1],no observable release
same,hydrolysis in 50% human serum,[2],no detectable hydrolysis

# Source: patent publication US8946405B2, “Controlled release from solid supports” (Prolynx LLC, priority 2010, dated 2015)
